Source: US5637609A, “2-phenylpyrrole derivatives as dopamine D3 receptor antagonists” (SmithKline Beecham plc, priority 1993, dated 1997)
Counter-ions that a name gives are not always drawn.

Molecular target: T1, human D3 dopamine receptors (Homo sapiens, UniProt P35462)
T1 construct: expressed in transfected cells; host or cells: CHO cells
Assay: [125I] iodosulpride displacement binding to cloned human D3 dopamine receptors expressed in CHO cells
Conditions: displacement of 0.1 nM [125I] iodosulpride, CHO cell membranes, 30 min at 37° C.; read-out: IC50 values at the human D3 receptor
Protocol: The inhibition constants (Ki) of test compounds for displacement of [^125 I] iodosulpride binding to human D2 and D3 dopamine receptors expressed in CHO cells have been determined. […] Cultures were grown as monolayers or in suspension in standard cell culture media. Cells were recovered by scraping (from monolayers) or by centrifugation (from suspension cultures), and were washed two or three times by suspension in phosphate buffered saline followed by collection by centrifugation. Cell pellets were stored frozen at -40° C. Crude cell membranes were prepared by homogenisation followed by high-speed centrifugation, and characterisation of cloned receptors achieved by radioligand binding.
Cell pellets were gently thawed at room temperature, and resuspended in about 20 volumes of ice-cold 50 mM Tris salts (pH 7.4@37° C.), 20 mM EDTA, 0.2M sucrose. The suspension was homogenised using an Ultra-Turrax at full speed for 15 sec. The homogenate was centrifuged at 18,000 r.p.m for 20 min at 4° C. in a Sorvall RC5C centrifuge. […] The final pellet was resuspended in 50 mM Tris salts (pH 7.4@37° C.), and the protein content determined using bovine serum albumin as a standard (Bradford, M. M. (1976) Anal. Biochem. 72, 248-254). […]
Competition curves were analysed simultaneously whenever possible using non-linear least-squares fitting procedures, capable of fitting one, two or three site models.

T1 sequence (P35462 whole entry): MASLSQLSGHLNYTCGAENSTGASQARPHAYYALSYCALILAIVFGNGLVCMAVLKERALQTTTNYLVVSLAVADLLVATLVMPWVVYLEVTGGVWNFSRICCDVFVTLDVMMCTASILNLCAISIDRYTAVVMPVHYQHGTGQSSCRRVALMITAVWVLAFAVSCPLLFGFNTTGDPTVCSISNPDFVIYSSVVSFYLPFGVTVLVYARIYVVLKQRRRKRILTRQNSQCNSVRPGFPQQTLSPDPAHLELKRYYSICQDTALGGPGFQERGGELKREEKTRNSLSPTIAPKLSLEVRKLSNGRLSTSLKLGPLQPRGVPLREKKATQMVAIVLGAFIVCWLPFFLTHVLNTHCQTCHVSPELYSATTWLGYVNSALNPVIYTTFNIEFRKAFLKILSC

Row | IC50 [nM] | Structure (SMILES)
1 | < 5 | CCN(Cc1ccc(-c2cc(S(=O)(=O)CC)ccc2OC)[nH]1)C1CCCc2ccccc21 (centres unmarked) [Example 1, 2-(5-Ethylsulfonyl-2-methoxyphenyl)-5-[N-ethyl-N-1-(1,2,3,4-tetrahydronaphthyl)aminomethyl]-1H-pyrrole hydrochloride]
2 | < 5 | CCN(Cc1ccc(-c2cc(S(=O)(=O)CC)ccc2OC)[nH]1)C1CCc2ccccc21 (centres unmarked) [Example 2, 2-(5-Ethylsulfonyl-2-methoxyphenyl)-5-[N-ethyl-N-1-(indanyl)aminomethyl]-1H-pyrrole, hydrochloride]
